Measurements as given in the NIST ThermoML archive (doi:10.1021/je700732u).
Numbers after ± are expanded uncertainties.

Tests used:
[1] = mn = molality of the nth substance listed, in mol/kg; conditions: 298.15 K, 101 kPa, Liquid
[2] = cn = amount concentration of the nth substance listed, in mol/dm3; conditions: 298.15 K, 101 kPa, Liquid

O=S(=O)([O-])[O-].[Mg+2] [magnesium sulfate] + O
Conditions | mass density [kg/m3] | viscosity [mPa·s]
[1], m1 = 0.05 | 1003.14 ± 0.18 | –
[1], m1 = 0.1 | 1009.13 ± 0.19 | –
[1], m1 = 0.2 | 1020.83 ± 0.23 | –
[1], m1 = 0.3 | 1032.43 ± 0.27 | –
[1], m1 = 0.4 | 1043.79 ± 0.31 | –
[1], m1 = 0.5 | 1055.11 ± 0.35 | –
[2], c1 = 0.04787 | – | 0.9216 ± 0.023
[2], c1 = 0.09971 | – | 0.9527 ± 0.024
[2], c1 = 0.1994 | – | 1.016 ± 0.025
[2], c1 = 0.2989 | – | 1.083 ± 0.027
[2], c1 = 0.3983 | – | 1.155 ± 0.028
[2], c1 = 0.4976 | – | 1.234 ± 0.03

[Cl-].[Cl-].[Mg+2] [magnesium chloride] + O
[1]
Conditions | mass density [kg/m3]
m1 = 0.09998 | 1004.88 ± 0.22
m1 = 0.2001 | 1012.54 ± 0.24
m1 = 0.4002 | 1027.51 ± 0.28
m1 = 0.5 | 1034.83 ± 0.3

O=S(=O)([O-])[O-].[Cu+2] [copper sulfate] + O
Conditions | mass density [kg/m3] | viscosity [mPa·s]
[1], m1 = 0.05 | 1005.22 ± 0.18 | –
[1], m1 = 0.1 | 1013.29 ± 0.2 | –
[1], m1 = 0.2 | 1029.16 ± 0.26 | –
[1], m1 = 0.3 | 1044.87 ± 0.31 | –
[1], m1 = 0.4 | 1060.4 ± 0.37 | –
[1], m1 = 0.5 | 1075.78 ± 0.43 | –
[2], c1 = 0.04986 | – | 0.9222 ± 0.023
[2], c1 = 0.09974 | – | 0.9516 ± 0.024
[2], c1 = 0.1995 | – | 1.013 ± 0.025
[2], c1 = 0.2991 | – | 1.083 ± 0.027
[2], c1 = 0.3987 | – | 1.147 ± 0.028
[2], c1 = 0.4981 | – | 1.223 ± 0.03

[Cl][Cu][Cl] [copper chloride] + O
[1]
Conditions | mass density [kg/m3]
m1 = 0.0498 | 1003.12 ± 0.27
m1 = 0.09962 | 1009.1 ± 0.29
m1 = 0.1992 | 1020.92 ± 0.33
m1 = 0.2988 | 1032.58 ± 0.37
m1 = 0.498 | 1055.47 ± 0.46

O=S(=O)([O-])[O-].[Na+].[Na+] [sodium sulfate] + O
[1]
Conditions | mass density [kg/m3]
m1 = 0.09205 | 1008.69 ± 0.29
m1 = 0.2001 | 1021.99 ± 0.33
m1 = 0.3 | 1034.01 ± 0.37
m1 = 0.3999 | 1045.81 ± 0.42
m1 = 0.5001 | 1057.44 ± 0.46

[Cl-].[Na+] [sodium chloride] + O
[1]
Conditions | mass density [kg/m3]
m1 = 0.04999 | 999.11 ± 0.27
m1 = 0.09999 | 1001.16 ± 0.27
m1 = 0.1999 | 1005.2 ± 0.28
m1 = 0.2999 | 1009.2 ± 0.29
m1 = 0.4002 | 1013.17 ± 0.3

OC[C@H]1O[C@@](CO)(O[C@H]2O[C@H](CO)[C@@H](O)[C@H](O)[C@H]2O)[C@@H](O)[C@@H]1O [D-sucrose] + O
[1]
Conditions | mass density [kg/m3] | viscosity [mPa·s]
m1 = 0.2 | 1022.17 ± 0.33 | 1.064 ± 0.026
m1 = 0.4 | 1045.26 ± 0.41 | 1.277 ± 0.031
m1 = 0.6 | 1066.44 ± 0.48 | 1.533 ± 0.037
m1 = 0.8 | 1086.04 ± 0.55 | 1.843 ± 0.044
m1 = 1 | 1104.2 ± 0.61 | 2.241 ± 0.053
m1 = 1.2 | 1121.03 ± 0.68 | 2.638 ± 0.062
